Reference: US20140308313A1 (priority 2006, published 2014)

Tests used:
[1] = test system: CD4 T cells producing TNFα; type: in vivo, CD1 mice; details: 10 days after 2nd immunisation, splenocytes cultured 16 hours
Method: FIG. 14 show a comparison of the CD4 T cell response against recombinant MenB antigens in mice immunised intramuscularly on day 0 and 21 with: a) a combination vaccine containing 3 MenB antigens and α-GC; b) a combination vaccine containing 3 MenB antigens and Alum; or c) with a combination vaccine containing 3 MenB antigens alone. The CD4 T cell response was assessed two weeks after the second immunisation by incubating total splenocytes with the indicated amount of MenB recombinant proteins for 16 hours ([…] of which in the presence of Brefeldin A). The number CD4 T cells producing TNFα was determined by intracellular staining and FACS analysis). […] As a positive control, response of all three groups of mice to polyclonal stimulation was tested.
A second experiment was conducted to assess the ex vivo CD4 T cell response to MenB antigens. Groups of 6 CD1 female mice were immunised twice with the mix of MenB antigens, formulated in PBS, alum or α-GC. 10 days after the 2nd immunisation, 3 mice/group were sacrificed and their spleens were removed. Whole splenocyte suspensions from individual mice were cultured with the MenB antigens for 16 hours, the last 12 of which were in the presence of brefeldin A to allow intracellular accumulation of cytokines. […] Percentages of CD3+CD4+CD69+ cytokine+ cells in the total CD4+ cell population were determined by FACS analysis.

[2] = test system: MenB; design: species or system mice; details: mouse, in vivo
[3] = test system: MenB-specific memory B cells; design: species or system mice; details: mouse, in vivo
[4] = test system: GBS80-IgG; design: species or system mice; details: mouse, in vivo
[5] = test system: H3N2-specific antibodies; test: H3N2 antibody response in mice bearing or lacking iNKT cells or CD1d; type: in vivo; details: mice lacking CD1d (CD1−/−); data not shown
Description: Mice lacking iNKT cells (Ja18−/−) immunised with H3N2 and α-GC (closed boxes) show no enhancement in serum titer of H3N2-specific antibodies compared to mice lacking iNKT cells immunised with H3N2 alone (open boxes). All immunisations were subcutaneous.

[6] = test system: protein-specific antibodies (TT, DT, H3N2); design: species or system C57/BL6 mice; details: mouse, in vivo
[7] = test system: H3N2-specific antibodies; test: α-GC in first, second or both priming doses of H3N2, challenge at week 56; type: in vivo, C57BL/6 mice
Description: FIG. 8 depicts the immunisation schedule used to assess whether α-GC is required to be present in all vaccine doses used at priming. 20 C57BL/6 female mice, aged 6-8 weeks, were divided into 4 groups of 5 mice. Group 1) was immunised with H3N2 in PBS at week 0 and H3N2+α-GC 2 weeks later. Group 2) were immunised with H3N2+α-GC at week 0 and H3N2 in PBS 2 weeks later. Group 3) were immunised with H3N2 in PBS at week 0 and week 2. Group 4) were immunised with H3N2 and α-GC at week 0 and 2 weeks later. 56 weeks after the initial immunisation, mice in all groups were challenged with 3 μg H3N2 in PBS and recall response was assessed at 58 weeks. All immunisations were intramuscular.
20 C57BL/6 female mice, aged 6-8 weeks, were divided into 4 groups of 5 mice. Group 1) was immunised with H3N2 in PBS at week 0 and H3N2+α-GC 2 weeks later. Group 2) were immunised with H3N2+α-GC at week 0 and H3N2 in PBS 2 weeks later. Group 3) were immunised with H3N2 in PBS at week 0 and week 2. Group 4) were immunised with H3N2 and α-GC at week 0 and 2 weeks later. 56 weeks after the initial immunisation, mice in all groups were challenged with 3 μg H3N2 in PBS. All immunisations were intramuscular.

[8] = test system: MenB antigens ΔG287nz-953, 936-741 and 961c; design: species or system mice; details: mouse, in vivo

`CCCCCCCCCCCCCCCCCCCCCCCCCC(=O)N[C@@H](CO[C@H]1OC(CO)[C@H](O)C(O)C1O)[C@H](O)[C@@H](O)CCCCCCCCCCCCCC` (stereo partly drawn) [α-GC, α-galactosylceramide] was tested, and the “expansion of CD4 T cells producing TNFα in response to MenB antigens” value [1] was “more effective than alum”, the “bactericidal antibody titers compared to alum” value [2] was “higher bactericidal antibody titers than alum” and the “frequencies of MenB-specific memory B cells in spleen compared to alum” value [3] was “higher frequencies of MenB-specific memory B cells”. The “GBS80-IgG response in the mothers relative to alum” value [4] was 8 fold, the adjuvant activity [5] was “did not display adjuvant activity” and the “serum titers of protein-specific antibodies compared to proteins alone” value [6] was “one to two logs higher”. For the same molecule, the “efficacy by timing of α-GC dose” value ([7]; first versus second vaccine dose) was “Maximal efficacy was observed when α-GC was given in the first vaccine dose”, the “recall response (H3N2 Ig titers) compared to 2 doses of H3N2 alone” value ([7]; two weeks after booster with H3N2 alone on week 56) was “higher recall responses” and the “H3N2-antibody response compared to H3N2 in PBS” value ([7]; α-GC in both, first only or second only immunisation) was “enhance the antibody response even when given only in the first or second immunisation”. The “antibody response (IgG titers) to the three MenB antigens” value [8] was “as effective as alum”.
